Laboratory results published in patent US9085555B2, “Complement pathway modulators and uses thereof” (priority 2011, dated 2015).
pIC50: −log10 of the molar value.

target: Factor D (Homo sapiens (Human), UniProt P00746); assay: biochemical; assay type: biochemical; details: read-out: IC50
Sequence (P00746 26-253): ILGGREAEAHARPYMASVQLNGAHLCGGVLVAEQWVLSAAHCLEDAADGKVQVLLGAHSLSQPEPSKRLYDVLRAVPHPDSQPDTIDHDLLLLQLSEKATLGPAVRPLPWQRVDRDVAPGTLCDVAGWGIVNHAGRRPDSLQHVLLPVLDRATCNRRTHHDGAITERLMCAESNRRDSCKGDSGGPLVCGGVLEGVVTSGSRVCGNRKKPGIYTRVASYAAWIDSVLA

Question: With `CC(=O)NC[C@@]1(F)C[C@@H](C(=O)NCc2cccc(Cl)c2F)N(C(=O)Nc2cn(C(N)=O)c3ccccc23)C1` [Example 221, (2S,4S)-4-(Acetylamino-methyl)-4-fluoro-pyrrolidine-1,2-dicarboxylic acid 1-[(1-carbamoyl-1H-indol-3-yl)-amide] 2-(3-chloro-2-fluoro-benzylamide)] as the compound, how does the pIC50 read?
Answer: Its pIC50 is 7.64.

Question: How did the pIC50 turn out when `NC(=O)n1cc(NC(=O)N2C[C@H](F)C[C@H]2C(=O)NCc2cccc(C(F)(F)F)c2F)c2ccccc21` [Example 222, (2S,4R)-4-Fluoro-pyrrolidine-1,2-dicarboxylic acid 1-[(1-carbamoyl-1H-indol-3-yl)-amide] 2-(2-fluoro-3-trifluoromethyl-benzylamide)] was run?
Answer: The pIC50 was 6.86.

Question: `NC(=O)n1cc(NC(=O)N2[C@@H]3C[C@@H]3C[C@H]2C(=O)N[C@H](CCO)c2cccc(Cl)c2F)c2ccccc21` [Example 223, (1R,3S,5R)-2-Azabicyclo[3.1.0]hexane-2,3-dicarboxylic acid 2-[(1-carbamoyl-1H-indol-3-yl)-amide] 3-{[(R)-1-(3-chloro-2-fluoro-phenyl)-3-hydroxy-propyl]-amide}] was tested. Which pIC50 did it give?
Answer: Its pIC50 is 7.92.

Question: `COc1ccc(CNC(=O)[C@@H]2SCCN2C(=O)Nc2cn(C(N)=O)c3ccccc23)c(F)c1F` [Example 225, (S)-Thiazolidine-2,3-dicarboxylic acid 3-[(1-carbamoyl-1H-indol-3-yl)-amide] 2-(2,3-difluoro-4-methoxy-benzylamide)] was tested. Which pIC50 did it give?
Answer: The pIC50 was 6.46.

Question: How did the pIC50 turn out when `NC(=O)n1cc(NC(=O)N2[C@@H]3C[C@@H]3C[C@H]2C(=O)NCc2cccnc2)c2ccccc21` [Example 226, (1R,3S,5R)-2Azabicyclo[3.1.0]hexane-2,3-dicarboxylic acid 2-[(1-carbamoyl-1H-indol-3-yl)amide] 3-[(pyridin-3-ylmethyl)-amide]] was run?
Answer: The pIC50 was 6.38.

Question: `C[C@H]1CCN(C(=O)Nc2cn(C(N)=O)c3ccccc23)[C@@H]1C(=O)Nc1cccc(OC(F)(F)F)c1` [Example 227, (2S,3S)-3-Methyl-pyrrolidine-1,2-dicarboxylic acid 1-[(1-carbamoyl-1H-indol-3-yl)-amide] 2-[(3-trifluoromethoxy-phenyl)-amide]] was tested. Which pIC50 did it give?
Answer: The pIC50 was 6.10.

Question: With `NC(=O)n1cc(NC(=O)N2C3CC3C[C@H]2C(=O)NCc2cncc(Cl)c2)c2ccccc21` (stereo partly drawn) [Example 228, (1R,3S,5R)-2-Aza-bicyclo[3.1.0]hexane-2,3-dicarboxylic acid 2-[(1-carbamoyl-1H-indol-3-yl)-amide] 3-[(5-chloro-pyridin-3-ylmethyl)-amide]] as the compound, how does the pIC50 read?
Answer: Its pIC50 is 7.00.

Question: How did the pIC50 turn out when `C[C@@]1(F)C[C@@H](C(=O)N[C@H](CCO)c2cccc(Cl)c2F)N(C(=O)Nc2cn(C(N)=O)c3ccccc23)C1` [Example 229, (2S,4R)-4-Fluoro-4-methyl-pyrrolidine-1,2-dicarboxylic acid 1-[(1-carbamoyl-1H-indol-3-yl)-amide] 2-{[(R)-1-(3-chloro-2-fluoro-phenyl)-3-hydroxy-propyl]-amide}] was run?
Answer: Its pIC50 is 7.54.

Question: With `NC(=O)n1cc(NC(=O)N2C[C@H](F)C[C@H]2C(=O)NCc2ccncc2F)c2ccccc21` [Example 230, (2S,4R)-4-Fluoro-pyrrolidine-1,2-dicarboxylic acid 1-[(1-carbamoyl-1H-indol-3-yl)-amide] 2-[(3-fluoro-pyridin-4-ylmethyl)-amide]] as the compound, how does the pIC50 read?
Answer: Its pIC50 is 5.59.

Question: `COC[C@@H](NC(=O)[C@@H]1[C@@H]2C[C@@H]2CN1C(=O)Nc1cn(C(N)=O)c2ccccc12)c1cccc(Cl)c1F` [Example 231, (1R,2S,5S)-3-Aza-bicyclo[3.1.0]hexane-2,3-dicarboxylic acid 3-[(1-carbamoyl-1H-indol-3-yl)-amide] 2-{[(S)-1-(3-chloro-2-fluoro-phenyl)-2-methoxy-ethyl]-amide}] was tested. Which pIC50 did it give?
Answer: Its pIC50 is 6.99.

Question: With `NC(=O)n1cc(NC(=O)N2C[C@H](F)C[C@H]2C(=O)NCc2ccnc(C(F)(F)F)c2F)c2ccccc21` [Example 232, (2S,4R)-4-Fluoro-pyrrolidine-1,2-dicarboxylic acid 1-[(1-carbamoyl-1H-indol-3-yl)-amide] 2-[(3-fluoro-2-trifluoromethyl-pyridin-4-ylmethyl)-amide]] as the compound, how does the pIC50 read?
Answer: Its pIC50 is 6.00.

Question: With `NC(=O)n1cc(NC(=O)N2CCC[C@H]2C(=O)Nc2cccc(S(N)(=O)=O)c2)c2ccccc21` [Example 233, (S)-Pyrrolidine-1,2-dicarboxylic acid 1-[(1-carbamoyl-1H-indol-3-yl)-amide] 2-[(3-sulfamoyl-phenyl)-amide]] as the compound, how does the pIC50 read?
Answer: Its pIC50 is 6.07.

Question: How did the pIC50 turn out when `COc1cc(F)c(F)c(CNC(=O)[C@@H]2SCCN2C(=O)Nc2cn(C(N)=O)c3ccccc23)c1` [Example 235, (S)-Thiazolidine-2,3-dicarboxylic acid 3-[(1-carbamoyl-1H-indol-3-yl)-amide] 2-(2,3-difluoro-5-methoxy-benzylamide)] was run?
Answer: The pIC50 was 7.10.

Question: `COC[C@@H](NC(=O)[C@@H]1C[C@H]2C[C@H]2N1C(=O)Nc1cn(C(N)=O)c2ccccc12)c1cccc(Cl)c1F` [Example 236, (1R,3S,5R)-2-Aza-bicyclo[3.1.0]hexane-2,3-dicarboxylic acid 2-[(1-carbamoyl-1H-indol-3-yl)-amide] 3-{[(S)-1-(3-chloro-2-fluoro-phenyl)-2-methoxy-ethyl]-amide}] was tested. Which pIC50 did it give?
Answer: Its pIC50 is 8.10.

Question: How did the pIC50 turn out when `NC(=O)n1cc(NC(=O)N2C[C@H](F)C[C@H]2C(=O)NCc2cncc(Cl)c2)c2ccccc21` [Example 237, (2S,4R)-4-Fluoro-pyrrolidine-1,2-dicarboxylic acid 1-[(1-carbamoyl-1H-indol-3-yl)-amide] 2-[(5-chloro-pyridin-3-ylmethyl)-amide]] was run?
Answer: Its pIC50 is 7.15.

Question: `CCc1cccc(NC(=O)[C@@H]2CCCN2C(=O)Nc2cn(C(N)=O)c3ccccc23)n1` [Example 238, (S)-Pyrrolidine-1,2-dicarboxylic acid 1-[(1-carbamoyl-1H-indol-3-yl)-amide] 2-[(6-ethyl-pyridin-2-yl)-amide]] was tested. Which pIC50 did it give?
Answer: Its pIC50 is 6.19.

Question: `C[C@@]1(F)C[C@@H](C(=O)N[C@H](CO)c2cccc(Cl)c2F)N(C(=O)Nc2cn(C(N)=O)c3ccccc23)C1` [Example 239, (2S,4R)-4-Fluoro-4-methyl-pyrrolidine-1,2-dicarboxylic acid 1-[(1-carbamoyl-1H-indol-3-yl)-amide] 2-{[(S)-1-(3-chloro-2-fluoro-phenyl)-2-hydroxy-ethyl]-amide}] was tested. Which pIC50 did it give?
Answer: Its pIC50 is 7.28.

Question: `CNC(=O)c1cc(Cl)c(F)c(CNC(=O)[C@@H]2C[C@@H](F)CN2C(=O)Nc2cn(C(N)=O)c3ccccc23)c1` [Example 240, (2S,4R)-4-Fluoro-pyrrolidine-1,2-dicarboxylic acid 1-[(1-carbamoyl-1H-indol-3-yl)-amide] 2-(3-chloro-2-fluoro-5-methylcarbamoyl-benzylamide)] was tested. Which pIC50 did it give?
Answer: Its pIC50 is 6.85.

Question: With `NC(=O)n1cc(NC(=O)N2C[C@](F)(CF)C[C@H]2C(=O)NCc2cccc(Cl)c2F)c2ccccc21` [Example 241, (2S,4S)-4-Fluoro-4-fluoromethyl-pyrrolidine-1,2-dicarboxylic acid 1-[(1-carbamoyl-1H-indol-3-yl)-amide] 2-(3-chloro-2-fluoro-benzylamide)] as the compound, how does the pIC50 read?
Answer: Its pIC50 is 6.60.

Question: How did the pIC50 turn out when `NC(=O)n1cc(NC(=O)N2C3CC3C[C@H]2C(=O)NCc2ncccc2F)c2ccccc21` (stereo partly shown) [Example 242] was run?
Answer: Its pIC50 is 6.70.

Question: How did the pIC50 turn out when `NC(=O)n1cc(NC(=O)N2C[C@@](F)(CN3CCOCC3)C[C@H]2C(=O)NCc2cccc(Cl)c2F)c2ccccc21` [Example 243, (2S,4S)-4-Fluoro-4-morpholin-4-ylmethyl-pyrrolidine-1,2-dicarboxylic acid 1-[(1-carbamoyl-1H-indol-3-yl)-amide] 2-(3-chloro-2-fluoro-benzylamide)] was run?
Answer: The pIC50 was 6.70.

Question: `COC(=O)c1cc(Cl)c(F)c(CNC(=O)[C@@H]2C[C@@H](F)CN2C(=O)Nc2cn(C(N)=O)c3ccccc23)c1` [Example 244, 3-({[(2S,4R)-1-(1-Carbamoyl-1H-indol-3-ylcarbamoyl)-4-fluoro-pyrrolidine-2-carbonyl]-amino}-methyl)-5-chloro-4-fluoro-benzoic acid methyl ester] was tested. Which pIC50 did it give?
Answer: The pIC50 was 7.77.

Question: With `COC[C@@H](NC(=O)[C@@H]1[C@H]2C[C@H]2CN1C(=O)Nc1cn(C(N)=O)c2ccccc12)c1cccc(Cl)c1F` [Example 245, (1S,2S,5R)-3-Aza-bicyclo[3.1.0]hexane-2,3-dicarboxylic acid 3-[(1-carbamoyl-1H-indol-3-yl)-amide] 2-{[(S)-1-(3-chloro-2-fluoro-phenyl)-2-methoxy-ethyl]-amide}] as the compound, how does the pIC50 read?
Answer: The pIC50 was 5.98.

Question: With `NC(=O)n1cc(NC(=O)N2C[C@H](F)C[C@H]2C(=O)NC(C(=O)O)c2cccc(Cl)c2)c2ccccc21` (stereo partly drawn) [Example 246, {[(2S,4R)-1-(1-Carbamoyl-1H-indol-3-ylcarbamoyl)-4-fluoro-pyrrolidine-2-carbonyl]-amino}-(3-chloro-phenyl)-acetic acid] as the compound, how does the pIC50 read?
Answer: The pIC50 was 5.70.

Question: With `NC(=O)n1cc(NC(=O)N2[C@@H]3C[C@@H]3C[C@H]2C(=O)Nc2cncc(Cl)c2)c2ccccc21` [Example 247, (1R,3S,5R)-2-Aza-bicyclo[3.1.0]hexane-2,3-dicarboxylic acid 2-[(1-carbamoyl-1H-indol-3-yl)-amide] 3-[(5-chloro-pyridin-3-yl)-amide]] as the compound, how does the pIC50 read?
Answer: The pIC50 was 6.40.

Question: How did the pIC50 turn out when `CN(C)C[C@@H](NC(=O)[C@@H]1C[C@@H](F)CN1C(=O)Nc1cn(C(N)=O)c2ccccc12)c1cccc(Cl)c1F` [Example 248, (2S,4R)-4-Fluoro-pyrrolidine-1,2-dicarboxylic acid 1-[(1-carbamoyl-1H-indol-3-yl)-amide] 2-{[(S)-1-(3-chloro-2-fluoro-phenyl)-2-dimethylamino-ethyl]-amide}] was run?
Answer: Its pIC50 is 6.92.

Question: `NC(=O)n1cc(NC(=O)N2C[C@H](F)C[C@H]2C(=O)NCc2cc(C(=O)N3CCOCC3)cc(Cl)c2F)c2ccccc21` [Example 250, (2S,4R)-4-Fluoro-pyrrolidine-1,2-dicarboxylic acid 1-[(1-carbamoyl-1H-indol-3-yl)-amide] 2-[3-chloro-2-fluoro-5-(morpholine-4-carbonyl)-benzylamide]] was tested. Which pIC50 did it give?
Answer: Its pIC50 is 6.26.

Question: With `CCN(CC)c1cc(Cl)c(F)c(CNC(=O)[C@@H]2C[C@@H](F)CN2C(=O)Nc2cn(C(N)=O)c3ccccc23)c1` [Example 252, (2S,4R)-4-Fluoro-pyrrolidine-1,2-dicarboxylic acid 1-[(1-carbamoyl-1H-indol-3-yl)-amide] 2-(3-chloro-5-diethylamino-2-fluoro-benzylamide)] as the compound, how does the pIC50 read?
Answer: The pIC50 was 6.94.
